# Laboratory results taken from patent US10117433B2 (priority 2011, dated 2018).
# Like-named read-outs stand apart in the source and are kept apart here.
# Legend:
# [1] = test system: adult worker honeybees (Apismellifera); settings: acute oral; cited from earlier work
# [2] = test system: adult worker honeybees (Apismellifera); settings: acute contact; cited from earlier work
# M. brassicae larvae [3] = test system: M. brassicae larvae; design: species or system Mamestra brassicae; settings: in vivo
# M. brassicae larvae [4] = test system: M. brassicae larvae; design: species or system Mamestra brassicae; settings: in vivo; remark: listed apart in the source
# M. brassicae larvae [5] = test system: M. brassicae larvae; design: species or system Mamestra brassicae; settings: in vivo; remark: listed apart in the source
# [6] = test system: cotton bollworm Heliothis armigera; settings: in vivo; cited from earlier work
# Heliothis virescens = settings: in vivo; cited from earlier work
# newborn mice = settings: mouse, in vivo; cited from earlier work
# [7] = test system: vertebrate-muscle preparations; settings: cited from earlier work
# [8] = test system: cereal aphid Sitobion avenae; settings: in vivo
# [9] = test system: tomato moth (Lacanobia oleracea); format: in vivo
# Method: Effect of Transgenic Arabidopsis Expressing Fusion Proteins when Fed to Tomato Moth (Lacanobia oleracea)
# 20 neonate Lacanobia oleracea larvae were placed in pots (4 replicates, 5 larvae per pot) and allowed to feed on detached leaves of transgenic Arabidopsis plants. Survival was measured over the course of a 14-day period and weights were measured at days 11 and 14. Assays were repeated giving a total sample number of 40. Treatments used were control, GNA-expressing, ButalT/GNA fusion protein expressing, and GNA/ButalT fusion protein expressing. Two independent lines expressing the ButalT/GNA fusion protein (lines 40 and 45) were used.
# M. brassicae larvae [10] = test system: M. brassicae larvae; design: species or system Mamestra brassicae; settings: in vivo; remark: listed apart in the source
# [11] = test system: adult worker honeybees (Apismellifera); settings: in vivo, po
# Honeybees = settings: in vivo
# [12] = test system: central nerve chord of M. brassicae larvae; settings: in vivo
molecule,measurement,setting,value
C/C(=N\C#N)N(C)Cc1ccc(Cl)nc1 [Acetamiprid],reported LD50,[1],14.5 ug/bee
same,reported LD50,[2],8.09 μg/bee
ω-ACTX-Hv1a,larval growth,M. brassicae larvae [3],no effect on larval growth
same,symptoms after injection of higher doses,M. brassicae larvae [4],displayed symptoms of paralysis
same,larval feeding / larval growth,M. brassicae larvae [5],no reduction in larval growth
same,oral activity,M. brassicae larvae [5]; po,not orally active
same,ED50,[6],3 nmol/g
same,PD50,Heliothis virescens,250 pmol/g
same,effect on newborn mice,newborn mice,harmless
same,effect on vertebrate-muscle preparations,[7],no effect
Galanthus nivalis agglutinin [GNA],survival compared to control treatments,[8],does not have a significant effect on the survival
same,survival,"[9]; first assay (FIG. 16), 14 days, ButalT/GNA line 40, GNA line 3, control 93%",90%
same,survival / larval mortality compared to controls,"[9]; neonate larvae, conclusions",no effect on larval mortality
same,reduction in mean weight,"[9]; second assay, days 11 and 14, vs control",approx. 50%
same,effect upon larvae when injected,M. brassicae larvae [4],no effect
same,average weight of surviving larvae reduced by,M. brassicae larvae [10],45%
same,survival (larvae remained),M. brassicae larvae [10],80%
same,LD50,[11],> 100 μg/bee
same,LD50 to honeybees,[11],greater than 100 ug/bee
same,effects on mortality,[11],smaller effects on mortality than acetamiprid
same,toxicity by injection,Honeybees,higher toxicity than FP5
same,bands in nerve tissue (anti-GNA Western blot),[12],not observed
same,presence in nerve chord and haemolymph samples (anti-GNA Western blot),[12],positive immunoreactivity
